Measured values taken from article PMC6753678, “Fueling Open Innovation for Malaria Transmission-Blocking Drugs: Hundreds of Molecules Targeting Early Parasite Mosquito Stages” (Frontiers in Microbiology, 2019).
Where two headings read alike, the source gives them in different places.

Key:
[1] = tested on: P. berghei ookinete development; conditions: for % inhibition, Replicate A / % inhibition, Replicate B: primary screen at 1 μM
[2] = tested on: 3D7-strain P. falciparum asexual parasites; assay: P. falciparum asexual growth inhibition assay (Pf GIA); type: cell-based, Plasmodium falciparum; conditions: dose response confirmation; read-out: Pf asexual growth inhibition assays IC50
In short: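 LDH readout: absorbance at 650 nm after 10 min at room temperature with lactate/APAD/NBT/diaphorase mix on thawed plates. Cultures (0.25% parasitemia, 2% hematocrit) were treated 72 h at 37°C in low-oxygen gas. Inhibition was normalised to 50 μM chloroquine and DMSO; n=3 biological replicates.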

HepG2 cells = assay: HepG2 cytotoxicity assay; conditions: for IC50: read-out: HepG2 cytotoxicity assay IC50, dose response confirmation; for Pb ODA (this manuscript) HepG2 cytoxicity: HepG2 cytotoxicity listed with the Pb ODA data set (this manuscript)
In short: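 HepG2 cells, 2,500 per well in MEM with 10% FBS and 1% NEAA, exposed to compounds for 48 h at 37°C, 5% CO2. Viability read by fluorescence; percent inhibition relative to 50 μM doxorubicin and DMSO controls.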

[3] = read-out: Pb ODA IC50, this manuscript
[4] = read-out: Pb Ookinete development assay IC50, dose response confirmation
[5] = HepG2 values of the three screens unified
[6] = unified HepG2 value across the three screens
[7] = read-out: Pb ODA (this manuscript) IC50, P. berghei ookinete development assay, this manuscript

Row | Structure (SMILES) | Is compound selective in assay? Pb ODA active? ([1]; 1: YES, 0: NO) | % inhibition, Replicate A [1] [%] | % inhibition, Replicate B [1] [%] | IC50 [1, 3] [µM] | IC50 [1, 4] [µM] | IC50 [2] [µM] | HepG2 cytoxicity (Pb ODA, this manuscript) (HepG2 cells) [µM] | Unified cytotox (HepG2 cells; [5]) [µM] | IC50 (HepG2 cells) [µM] | Unified cytotox (HepG2 cells; [6]) [µM] | Is compound selective in assay? Pb ODA active? [1] | IC50 [1, 7] [µM] | Pb ODA (this manuscript) HepG2 cytoxicity (HepG2 cells) [µM]
1 | Cc1[nH]c(C)c(-c2ccc(-c3ccc(F)cc3)nc2)c(=O)c1Br [TCMDC-135925] | 1 (1: YES) | 61.34 | 86.73 | 0.54 | 0.542 | 0.319 | 33.11 | 33.11 | 33.1 | – | – | – | –
2 | Cc1[nH]c(C)c(-c2ccc(-c3ccccc3F)nc2)c(=O)c1Br [TCMDC-135926] | 1 (1: YES) | 85.66 | 106.09 | 0.46 | 0.461 | 0.222 | – | 100.00 | 100 | – | – | – | –
3 | Cc1[nH]c(C)c(-c2ccc(-c3ccccc3F)nc2)c(=O)c1Cl [TCMDC-135927] | 1 (1: YES) | 86.73 | 100.97 | 0.43 | 0.432 | 0.339 | – | 100.00 | 100 | – | – | – | –
4 | COc1cc(Nc2ncc3c(C)nc(-c4cccc(Nc5ccc(CN6CCS(=O)(=O)CC6)cc5)c4)n3n2)cc(OC)c1OC [TCMDC-136003] | 1 (1: YES) | 93.24 | 100.90 | 0.18 | 0.175 | 1.4 | – | – | 30.9 | 30.90 | – | – | –
5 | Cc1noc(C)c1-c1ccc2c(Nc3ccc(Cl)cc3)c(C(N)=O)cnc2c1.Cl [TCMDC-136010] | – | 77.30 | 54.77 | – | 6.66 | 0.053 | – | – | 4.84 | – | 0 (key: 1: YES; 0: NO) | 6.66 | 4.84
6 | Cc1[nH]c(C)c(-c2ccc(-c3ccc(C(F)(F)F)cc3C(F)(F)F)nc2)c(=O)c1Br [TCMDC-136013] | 1 (1: YES) | 94.49 | 93.70 | 0.19 | 0.185 | 0.154 | 7.41 | 7.41 | 7.41 | – | – | – | –
7 | Cc1[nH]c(C)c(-c2ccc(CCc3cccc(C(F)(F)F)c3)nc2)c(=O)c1Cl [TCMDC-136014] | 1 (1: YES) | 91.00 | 104.63 | 0.12 | 0.123 | 0.093 | 7.08 | 7.08 | 7.08 | – | – | – | –
8 | Cc1[nH]c(C)c(-c2ccc(-c3cc(C(F)(F)F)cc(C(F)(F)F)c3)nc2)c(=O)c1Br [TCMDC-136015] | 1 (1: YES) | 84.59 | 96.22 | 0.11 | 0.107 | 0.024 | 1.26 | 1.26 | 1.26 | – | – | – | –
9 | Cc1[nH]c(C)c(-c2ccc(-c3ccc(OC(F)(F)F)cc3)nc2)c(=O)c1Br [TCMDC-136016] | 1 (1: YES) | 59.20 | 74.30 | 0.45 | 0.446 | 0.326 | – | 100.00 | 100 | – | – | – | –
10 | Cc1[nH]c(C)c(-c2csc3ccccc23)c(=O)c1Cl [TCMDC-136017] | 1 (1: YES) | 37.82 | 76.50 | 1.84 | 1.84 | 2.26 | – | – | 100 | 100.00 | – | – | –
11 | Cc1noc(C)c1-c1ccc2c(Nc3ccc(C(F)(F)F)cc3)c(C(N)=O)cnc2c1.Cl [TCMDC-136019] | – | 61.84 | 39.20 | – | 5.46 | 0.365 | – | – | 49 | – | 0 (key: 1: YES; 0: NO) | 5.46 | 48.98
12 | Cc1nc2c(c([O-])c1Cl)-c1ccc(Oc3cccc(C(F)(F)F)c3)cc1C2=O.[Na+] [TCMDC-136021] | 1 (1: YES) | 94.15 | 74.80 | 0.78 | 0.785 | 0.054 | – | – | 39.8 | 39.81 | – | – | –
13 | Cc1noc(C)c1-c1ccc2c(Nc3ccc(C#N)cc3)c(C(N)=O)cnc2c1 [TCMDC-136029] | – | 61.24 | 98.78 | – | 3.83 | 0.609 | – | – | 69.2 | – | 1 (key: 1: YES; 0: NO) | 3.83 | 69.18
14 | Cc1[nH]c(C)c(-c2ccc(CCc3ccc(C(F)(F)F)cc3)nc2)c(=O)c1Cl [TCMDC-136051] | 1 (1: YES) | 100.56 | 100.86 | 0.14 | 0.144 | 0.052 | 56.89 | 56.89 | 56.9 | – | – | – | –
15 | CC(=O)c1ccc(Nc2c(C(N)=O)cnc3cc(-c4c(C)noc4C)ccc23)cc1 [TCMDC-136058] | – | 86.92 | 80.92 | – | 3.2 | 1.35 | – | – | 100 | – | 1 (key: 1: YES; 0: NO) | 3.2 | 100.00
16 | Cc1[nH]c(C)c(-c2ccc(-c3ccc(OC(F)(F)F)cc3)cc2)c(=O)c1Cl [TCMDC-136060] | 1 (1: YES) | 87.72 | 84.45 | 0.0538 | 0.054 | 0.077 | 64.57 | 64.57 | 64.6 | – | – | – | –
17 | COc1ccc(Oc2ccc(-c3c(C)[nH]c(C)c(Cl)c3=O)cc2)cc1 [TCMDC-136134] | 1 (1: YES) | 121.16 | 100.57 | 0.42 | 0.422 | 0.0074 | – | 100.00 | 100 | – | – | – | –
18 | Cc1[nH]c(C)c(-c2ccc(-c3ccccc3Cl)nc2)c(=O)c1Br [TCMDC-136157] | 0 (0: NO) | 96.17 | 90.55 | 0.43 | 0.432 | 0.048 | 0.14 | 0.14 | 0.14 | – | – | – | –
19 | Cc1[nH]c(C)c(-c2ccc(-c3ccc(Cl)cc3)nc2)c(=O)c1Br [TCMDC-136159] | 1 (1: YES) | 98.54 | 60.48 | – | 0.94 | 0.625 | – | 100.00 | 100 | – | – | – | –
